# Assay results from ChEMBL document CHEMBL6134858, “Structure-Based Discovery Targeting GSK-3α Reveals Potent Nanomolar Selective 4-Phenyl-1H-benzofuro[3,2-b]pyrazolo[4,3-e]pyridine Inhibitor with Promising Glioblastoma and CNS-Active Potential in Cellular Models” (J Med Chem, 2025).
# The source made the active and inactive calls. The calls are words filed in the database; no cut-off is given here.
# What was measured:
# U-251 [1] = experiment: cells; conditions: Homo sapiens, U-251, 24 h
# Description: Antiproliferative activity against human U-251MG cells assessed as reduction in cell viability incubated for 24 hrs by PrestoBlue cell viability assay
# T98G [2] = experiment: Antiproliferative activity against human T98G cells assessed as reduction in cell viability incubated for 72 hrs by PrestoBlue cell viability assay
# U-87 MG [3] = experiment: Antiproliferative activity against human U-87 MG cells assessed as reduction in cell viability incubated for 72 hrs by PrestoBlue cell viability assay
# U-87 MG [4] = experiment: Antiproliferative activity against human U-87 MG cells assessed as reduction in cell viability incubated for 24 to 72 hrs by PrestoBlue cell viability assay; assay type: functional, cell-based; conditions: U-87MG ATCC, time 24-72 hrs
# U-87 MG [5] = experiment: Antiproliferative activity against human U-87 MG cells assessed as reduction in cell viability incubated for 48 hrs by PrestoBlue cell viability assay
# U-251 [6] = experiment: Antiproliferative activity against human U-251MG cells assessed as reduction in cell viability incubated for 24 to 72 hrs by PrestoBlue cell viability assay; assay type: functional, cell-based; conditions: dose 0.3-300 µM, time 24-72 hrs
# U-251 [7] = experiment: cells; conditions: Homo sapiens, U-251, 72 h
# Description: Antiproliferative activity against human U-251MG cells assessed as reduction in cell viability incubated for 72 hrs by PrestoBlue cell viability assay
# T98G [8] = experiment: Antiproliferative activity against human T98G cells assessed as reduction in cell viability incubated for 48 hrs by PrestoBlue cell viability assay
# U-251 [9] = experiment: cells; conditions: Homo sapiens, U-251, 48 h
# Description: Antiproliferative activity against human U-251MG cells assessed as reduction in cell viability incubated for 48 hrs by PrestoBlue cell viability assay
# T98G [10] = experiment: Antiproliferative activity against human T98G cells assessed as reduction in cell viability incubated for 24 hrs by PrestoBlue cell viability assay
# U-87 MG [11] = experiment: Antiproliferative activity against human U-87 MG cells assessed as reduction in cell viability incubated for 24 hrs by PrestoBlue cell viability assay
# T98G [12] = experiment: Antiproliferative activity against human T98G cells assessed as reduction in cell viability incubated for 24 to 72 hrs by PrestoBlue cell viability assay; assay type: functional, cell-based; conditions: dose 0.3-300 µM, time 24-72 hrs
# U-87 MG [13] = experiment: Induction of cell cycle arrest in human U-87 MG cells assessed as accumulation of cell at sub-G1 phase at IC50 concentration incubated for 72 hrs by propidium iodide/RNase staining based flow cytometry relative to control; assay type: functional; conditions: U-87MG ATCC
# [14] = target: Protein kinase C gamma type (Homo sapiens) (UniProt P05129); experiment: Inhibition of PKCgamma (unknown origin) assessed as residual activity at 10 uM relative to control
# [15] = target: Mitogen-activated protein kinase 3 (Homo sapiens) (UniProt P27361); experiment: Inhibition of ERK1 (unknown origin) assessed as residual activity at 10 uM relative to control
# T98G [16] = experiment: Induction of cell cycle arrest in human T98G cells assessed as accumulation of cell at S phase at IC50 concentration incubated for 72 hrs by propidium iodide/RNase staining based flow cytometry relative to control; assay type: functional
# U-251 [17] = experiment: Induction of cell cycle arrest in human U-251MG cells assessed as accumulation of cell at S phase at IC50 concentration incubated for 72 hrs by propidium iodide/RNase staining based flow cytometry relative to control; assay type: functional
# [18] = target: Cyclin-dependent kinase 9 (Homo sapiens) (UniProt P50750); experiment: Inhibition of CDK9 (unknown origin) assessed as residual activity at 10 uM relative to control
# [19] = Inhibition of PKA (unknown origin); design: species or system Homo sapiens
# T98G [20] = experiment: Induction of cell cycle arrest in human T98G cells assessed as accumulation of cell at G1 phase at IC50 concentration incubated for 72 hrs by propidium iodide/RNase staining based flow cytometry (reference value: 73.3 %); assay type: functional
# [21] = target: Cyclin-dependent kinase 5 (Homo sapiens) (UniProt Q00535); experiment: Inhibition of CDK5 (unknown origin) assessed as residual activity at 10 uM relative to control
# U-251 [22] = experiment: Induction of cell cycle arrest in human U-251MG cells assessed as accumulation of cell at G1 phase at IC50 concentration incubated for 72 hrs by propidium iodide/RNase staining based flow cytometry (reference value: 74.8 %); assay type: functional
# U-87 MG [23] = experiment: Induction of cell cycle arrest in human U-87 MG cells assessed as accumulation of cell at G1 phase at IC50 concentration incubated for 72 hrs by propidium iodide/RNase staining based flow cytometry (reference value: 55.0 %); assay type: functional, U-87MG ATCC
# Homo sapiens [24] = organism: Homo sapiens; experiment: Inhibition of PKA (unknown origin) at 10 uM
# [25] = Cytotoxicity against human Astrocyte at 10 to 100 uM incubated for 72 hrs by PrestoBlue cell viability assay; assay type: toxicity, cell-based; conditions: dose 10-100 µM
# [26] = target: RAC-beta serine/threonine-protein kinase (Homo sapiens) (UniProt P31751); experiment: Inhibition of PKBbeta (unknown origin) assessed as residual activity at 10 uM relative to control
# [27] = Metabolic stability in human liver microsomes assessed as intrinsic clearance at 10 uM incubated up to 60 mins by HPLC-MS analysis; assay type: ADME, Microsome; conditions: 1 h
# [28] = target: Mitogen-activated protein kinase 1 (Homo sapiens) (UniProt P28482); experiment: Inhibition of ERK2 (unknown origin) assessed as residual activity at 10 uM relative to control
# [29] = target: Protein kinase C alpha type (Homo sapiens) (UniProt P17252); experiment: Inhibition of PKCalpha (unknown origin) assessed as residual activity at 10 uM relative to control
# T98G [30] = experiment: Antiproliferative activity against human T98G cells assessed as reduction in cell viability at IC50 concentrations incubated for 72 hrs by PrestoBlue cell viability assay relative to control; assay type: functional
# Homo sapiens [31] = organism: Homo sapiens; experiment: Inhibition of PKA (unknown origin) assessed as residual activity at 10 uM relative to control
# [32] = target: RAC-alpha serine/threonine-protein kinase (Homo sapiens) (UniProt P31749); experiment: Inhibition of PKBalpha (unknown origin) assessed as residual activity at 10 uM relative to control
# T98G [33] = experiment: Antiproliferative activity against human T98G cells assessed as reduction in cell viability at IC50 concentrations incubated for 72 hrs in presence of in BBB model (cocultured with HA, HBVP and HBMEC cells) by PrestoBlue cell viability assay relative to control; assay type: functional
# [34] = target: Cyclin-dependent kinase 2 (Homo sapiens) (UniProt P24941); experiment: Inhibition of CDK2 (unknown origin) assessed as residual activity at 10 uM relative to control
# U-87 MG [35] = experiment: Induction of cell cycle arrest in human U-87 MG cells assessed as accumulation of cell at S phase at IC50 concentration incubated for 72 hrs by propidium iodide/RNase staining based flow cytometry relative to control; assay type: functional, U-87MG ATCC
# [36] = Metabolic stability in human liver microsomes assessed as half life at 10 uM incubated up to 60 mins by HPLC-MS analysis; assay type: ADME, Microsome
# [37] = Cytotoxicity against human Astrocyte at 100 uM incubated for 72 hrs by PrestoBlue cell viability assay; assay type: toxicity, cell-based
# Sequence of RAC-beta serine/threonine-protein kinase (Homo sapiens) (P31751 whole entry): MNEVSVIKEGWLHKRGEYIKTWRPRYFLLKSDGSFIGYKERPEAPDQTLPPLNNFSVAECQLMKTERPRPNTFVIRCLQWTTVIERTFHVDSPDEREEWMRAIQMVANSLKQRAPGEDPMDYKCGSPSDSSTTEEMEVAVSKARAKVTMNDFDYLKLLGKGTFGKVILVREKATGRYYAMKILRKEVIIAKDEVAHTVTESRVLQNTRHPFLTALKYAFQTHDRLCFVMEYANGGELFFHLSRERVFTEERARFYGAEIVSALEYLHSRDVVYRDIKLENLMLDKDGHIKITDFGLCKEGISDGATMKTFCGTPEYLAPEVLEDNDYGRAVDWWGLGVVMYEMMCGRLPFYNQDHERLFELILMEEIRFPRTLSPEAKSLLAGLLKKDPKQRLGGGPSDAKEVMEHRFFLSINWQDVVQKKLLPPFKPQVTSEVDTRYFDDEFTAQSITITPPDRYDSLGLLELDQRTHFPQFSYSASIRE
# Sequence of Mitogen-activated protein kinase 1 (Homo sapiens) (P28482 whole entry): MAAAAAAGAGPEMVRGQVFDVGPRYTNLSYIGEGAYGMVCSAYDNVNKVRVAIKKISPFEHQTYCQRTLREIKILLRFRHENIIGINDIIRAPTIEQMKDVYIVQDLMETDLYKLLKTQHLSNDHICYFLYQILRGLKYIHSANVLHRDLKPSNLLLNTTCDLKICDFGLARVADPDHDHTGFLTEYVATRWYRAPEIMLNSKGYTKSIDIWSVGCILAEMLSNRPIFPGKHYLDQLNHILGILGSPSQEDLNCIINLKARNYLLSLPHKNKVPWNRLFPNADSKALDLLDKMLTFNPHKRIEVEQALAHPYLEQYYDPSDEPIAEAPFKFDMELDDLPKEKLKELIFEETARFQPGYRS
# Sequence of RAC-alpha serine/threonine-protein kinase (Homo sapiens) (P31749 whole entry): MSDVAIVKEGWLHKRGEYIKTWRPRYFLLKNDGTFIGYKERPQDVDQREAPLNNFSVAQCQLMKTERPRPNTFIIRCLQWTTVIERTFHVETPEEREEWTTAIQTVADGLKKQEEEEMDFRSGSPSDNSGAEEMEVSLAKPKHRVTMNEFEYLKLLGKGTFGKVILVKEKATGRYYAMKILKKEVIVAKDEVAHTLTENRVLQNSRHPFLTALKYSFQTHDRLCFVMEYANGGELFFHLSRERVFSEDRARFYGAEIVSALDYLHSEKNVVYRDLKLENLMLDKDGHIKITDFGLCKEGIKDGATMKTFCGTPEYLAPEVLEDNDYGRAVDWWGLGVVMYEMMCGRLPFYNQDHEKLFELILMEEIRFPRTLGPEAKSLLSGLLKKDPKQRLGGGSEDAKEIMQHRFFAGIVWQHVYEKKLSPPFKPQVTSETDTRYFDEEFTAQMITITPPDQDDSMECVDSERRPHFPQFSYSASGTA
# Sequence of Cyclin-dependent kinase 5 (Homo sapiens) (Q00535 whole entry, looked up): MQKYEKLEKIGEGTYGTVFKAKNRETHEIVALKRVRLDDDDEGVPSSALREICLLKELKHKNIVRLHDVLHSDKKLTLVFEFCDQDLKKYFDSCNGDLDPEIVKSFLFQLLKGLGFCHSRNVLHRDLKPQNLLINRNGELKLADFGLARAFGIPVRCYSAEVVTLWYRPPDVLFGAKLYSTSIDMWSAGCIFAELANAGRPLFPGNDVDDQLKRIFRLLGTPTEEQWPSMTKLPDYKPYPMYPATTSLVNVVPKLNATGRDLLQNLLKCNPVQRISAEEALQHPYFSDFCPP
# Sequence of Mitogen-activated protein kinase 3 (Homo sapiens) (P27361 whole entry): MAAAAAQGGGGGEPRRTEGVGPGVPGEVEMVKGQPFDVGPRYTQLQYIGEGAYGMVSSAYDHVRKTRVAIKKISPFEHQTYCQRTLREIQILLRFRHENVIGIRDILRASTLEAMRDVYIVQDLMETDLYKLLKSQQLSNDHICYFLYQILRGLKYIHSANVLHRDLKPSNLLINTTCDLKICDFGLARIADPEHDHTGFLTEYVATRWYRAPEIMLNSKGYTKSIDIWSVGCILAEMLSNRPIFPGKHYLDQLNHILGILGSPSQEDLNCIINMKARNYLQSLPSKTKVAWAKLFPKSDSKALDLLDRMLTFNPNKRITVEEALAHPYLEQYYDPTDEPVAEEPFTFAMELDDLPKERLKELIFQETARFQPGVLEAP
# Sequence of Cyclin-dependent kinase 9 (Homo sapiens) (P50750 whole entry): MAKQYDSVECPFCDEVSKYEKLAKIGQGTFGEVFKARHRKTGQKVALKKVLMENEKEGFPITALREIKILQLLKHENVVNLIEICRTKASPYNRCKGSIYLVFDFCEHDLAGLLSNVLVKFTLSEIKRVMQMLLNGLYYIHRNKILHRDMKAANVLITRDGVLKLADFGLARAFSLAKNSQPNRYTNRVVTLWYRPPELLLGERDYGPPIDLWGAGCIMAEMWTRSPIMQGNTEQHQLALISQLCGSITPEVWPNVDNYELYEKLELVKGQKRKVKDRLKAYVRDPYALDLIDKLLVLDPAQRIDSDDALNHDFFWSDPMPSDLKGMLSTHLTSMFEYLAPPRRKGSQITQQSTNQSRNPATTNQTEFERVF
structure (smiles),measurement,setting,value
Cn1sc(=O)n(Cc2ccccc2)c1=O,IC50,U-251 [1],51 µM
same,IC50,T98G [2],41.4 µM
same,IC50,U-87 MG [3],23.6 µM
same,Activity,U-87 MG [4],Dose-dependent-effect
same,IC50,U-87 MG [5],28.2 µM
same,Activity,U-251 [6],Dose-dependent-effect
same,IC50,U-251 [7],15.7 µM
same,IC50,T98G [8],54.4 µM
same,IC50,U-251 [9],24.9 µM
same,IC50,T98G [10],65.9 µM
same,IC50,U-87 MG [11],36.8 µM
same,Activity,T98G [12],Dose-dependent-effect
CC(C)c1ccc(-c2c3cn[nH]c3nc3c2oc2cc(O)ccc23)cc1,Activity,U-87 MG [13],Active
same,IC50,U-251 [1],15.1 µM
same,Activity,[14],> 50%
same,IC50,T98G [2],6.2 µM
same,IC50,U-87 MG [3],3.3 µM
same,Activity,[15],> 50%
same,Activity,U-87 MG [4],Dose-dependent-effect
same,Activity,T98G [16],22.3%
same,Activity,U-251 [17],15.9%
same,Activity,[18],> 50%
same,IC50,[19],0.188 µM
same,Activity,T98G [20],65.8%
same,Activity,[21],> 50%
same,IC50,U-87 MG [5],4.7 µM
same,Activity,U-251 [6],Dose-dependent-effect
same,IC50,U-251 [7],6.1 µM
same,Activity,U-251 [22],61.6%
same,Activity,U-87 MG [23],45.5%
same,inhibition,Homo sapiens [24],Active
same,IC50,T98G [8],8.1 µM
same,IC50,U-251 [9],8.3 µM
same,IC50,T98G [10],12 µM
same,Activity,[25],Non-toxic
same,Activity,[26],> 50%
same,CLH,[27],5.6 µL/min/mg
same,Activity,[28],> 50%
same,IC50,U-87 MG [11],15 µM
same,Activity,[29],> 50%
same,Activity,T98G [30],61%
same,Activity,Homo sapiens [31],> 50%
same,Activity,[32],> 50%
same,Activity,T98G [33],78%
same,Activity,[34],> 50%
same,Activity,U-87 MG [35],27.8%
same,Activity,T98G [12],Dose-dependent-effect
same,half-life at 10 µM,[36],1.68 h
same,Activity,[37],Non-toxic
